Measured values from patent publication US10577368B2 (The United States of America, as represented by the …, priority 2013, dated 2020).

Experiments:
human DAT = human DAT (Homo sapiens (Human), UniProt Q01959); test: Radioligand ([3H]WIN35428) binding at the dopamine transporter; details: 10 μM
hA1AR = hA1AR (Homo sapiens (Human), UniProt P30542); test: Radioligand binding at hA1AR, CHO cell membranes, [3H]R-PIA; details: for hA1AR % inhibition: inhibition of binding at 10 μM; for inhibition at 10 µM: read-out: hA1AR % inhibition
Sequence of hA1AR (P30542 whole entry): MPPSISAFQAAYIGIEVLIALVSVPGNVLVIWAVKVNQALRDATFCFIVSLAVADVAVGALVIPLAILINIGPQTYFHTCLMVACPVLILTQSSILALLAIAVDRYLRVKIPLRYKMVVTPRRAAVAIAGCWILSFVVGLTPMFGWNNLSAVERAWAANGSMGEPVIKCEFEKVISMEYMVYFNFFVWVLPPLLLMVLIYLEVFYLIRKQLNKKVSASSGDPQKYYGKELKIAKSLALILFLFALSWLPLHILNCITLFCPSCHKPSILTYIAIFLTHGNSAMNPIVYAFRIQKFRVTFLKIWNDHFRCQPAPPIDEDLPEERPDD

hA3AR = hA3AR (Homo sapiens (Human), UniProt P0DMS8); test: Radioligand binding at hA3AR, CHO cell membranes, [125I]I-AB-MECA
Sequence of hA3AR (P0DMS8 whole entry): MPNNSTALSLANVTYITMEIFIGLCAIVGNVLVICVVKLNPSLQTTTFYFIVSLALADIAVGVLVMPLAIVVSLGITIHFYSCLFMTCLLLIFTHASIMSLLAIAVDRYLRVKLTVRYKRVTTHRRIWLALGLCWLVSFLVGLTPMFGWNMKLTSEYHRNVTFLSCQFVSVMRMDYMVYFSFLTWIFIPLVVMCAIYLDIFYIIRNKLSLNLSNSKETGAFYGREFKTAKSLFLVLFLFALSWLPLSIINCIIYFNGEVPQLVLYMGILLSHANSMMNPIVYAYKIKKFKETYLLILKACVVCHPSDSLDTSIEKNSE

hA2AAR = hA2AAR (Homo sapiens (Human), UniProt P29274); test: Radioligand binding at hA2AAR, HEK293 cell membranes, [3H]CGS21680; details: for hA2AAR % inhibition: inhibition of binding at 10 μM; for inhibition at 10 µM: read-out: hA2AAR % inhibition
Sequence of hA2AAR (P29274 whole entry): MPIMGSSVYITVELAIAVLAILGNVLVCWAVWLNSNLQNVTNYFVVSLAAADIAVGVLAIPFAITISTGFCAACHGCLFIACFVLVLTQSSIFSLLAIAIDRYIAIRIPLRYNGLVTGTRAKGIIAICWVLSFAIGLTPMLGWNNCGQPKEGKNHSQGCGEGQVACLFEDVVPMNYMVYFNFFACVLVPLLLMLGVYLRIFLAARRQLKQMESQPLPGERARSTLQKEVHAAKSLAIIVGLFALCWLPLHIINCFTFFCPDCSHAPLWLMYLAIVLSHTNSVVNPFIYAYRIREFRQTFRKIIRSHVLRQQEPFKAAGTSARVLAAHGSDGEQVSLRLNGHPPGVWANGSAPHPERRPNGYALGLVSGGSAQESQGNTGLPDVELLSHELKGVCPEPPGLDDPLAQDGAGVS

[1] = tested on: chronic constriction injury model of neuropathic pain; test: CCI model of neuropathic pain, reversal of mechano-allodynia; format: in vivo, mice; details: for Effect at 3 h (% ± SEM) / Max. effect Emax (% ± SEM) / Time of peak protection: 3 μmol/kg p.o., mice; for Max. effect Emax (% ± SEM) / Time of peak protection: ipsilateral hind paw; for Efficacy in reversing NP in vivo (of full reversal at peak effect): CCI model
mA3AR = mA3AR (Mus musculus (Mouse), UniProt Q61618); test: Competition binding at mA3AR, HEK293 cell membranes
Sequence of mA3AR (Q61618 whole entry): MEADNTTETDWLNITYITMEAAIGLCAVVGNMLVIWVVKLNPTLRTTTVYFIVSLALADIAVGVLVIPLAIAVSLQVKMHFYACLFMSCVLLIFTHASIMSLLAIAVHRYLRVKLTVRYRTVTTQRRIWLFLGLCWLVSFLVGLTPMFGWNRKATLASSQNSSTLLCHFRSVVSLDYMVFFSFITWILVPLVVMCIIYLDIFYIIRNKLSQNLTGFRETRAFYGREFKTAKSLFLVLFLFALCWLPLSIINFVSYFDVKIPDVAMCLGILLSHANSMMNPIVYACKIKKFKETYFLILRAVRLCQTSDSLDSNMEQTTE

Sequence of human DAT (Q01959 whole entry): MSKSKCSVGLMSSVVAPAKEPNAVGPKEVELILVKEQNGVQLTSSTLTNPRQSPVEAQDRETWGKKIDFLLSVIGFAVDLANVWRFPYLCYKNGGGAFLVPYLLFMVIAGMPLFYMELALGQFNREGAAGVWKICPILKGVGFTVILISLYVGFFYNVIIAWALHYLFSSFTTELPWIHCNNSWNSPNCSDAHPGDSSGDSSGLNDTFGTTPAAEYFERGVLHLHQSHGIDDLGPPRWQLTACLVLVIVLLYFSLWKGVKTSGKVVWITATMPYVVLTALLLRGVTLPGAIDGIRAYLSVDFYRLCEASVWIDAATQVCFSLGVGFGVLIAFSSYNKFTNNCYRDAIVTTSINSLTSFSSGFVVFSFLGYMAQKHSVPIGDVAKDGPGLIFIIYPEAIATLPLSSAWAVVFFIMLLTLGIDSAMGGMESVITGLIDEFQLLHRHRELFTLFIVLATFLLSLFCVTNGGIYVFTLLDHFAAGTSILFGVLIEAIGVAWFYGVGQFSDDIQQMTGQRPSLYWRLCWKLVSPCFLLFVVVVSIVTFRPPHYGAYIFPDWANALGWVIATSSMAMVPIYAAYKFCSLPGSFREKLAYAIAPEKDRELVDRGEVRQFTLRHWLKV

Row | SMILES | Ki (hA3AR) [nM] | hA2AAR % inhibition (hA2AAR) [%] | inhibition at 10 µM (hA2AAR) [%] | hA1AR % inhibition (hA1AR) [%] | Effect at 3 h (% ± SEM) [1] [%] | Max. effect Emax (% ± SEM) [1] [%] | Time of peak protection [1] [h] | also measured
1 | CCNc1nc(C#Cc2ccc(Cl)s2)nc2c1ncn2[C@H]1C(O)[C@@H](O)[C@]2(C(=O)NC)C[C@H]12 (stereo partly drawn) [Compound 126] |  |  |  |  |  |  |  | Increase of the level of radioligand ([3H]WIN35428) binding at the human DAT (human DAT): 329%
2 | CNC(=O)[C@@]12C[C@@H]1[C@@H](n1cnc3c(NC)nc(C#Cc4ccccc4OC)nc31)[C@H](O)[C@@H]2O [Compound 13, (1S,2R,3S,4R,5S)-2,3-Dihydroxy-4-(2-((2-methoxyphenyl)ethynyl)-6-(methylamino)-9H-purin-9-yl)-N-methylbicyclo[3.1.0]hexane-1-carboxamide] | 0.77 ± 0.17 |  | 20 ± 7 |  |  | 64.3 ± 10.7 | 1 | inhibition at 10 µM (hA1AR): 12%; Efficacy in reversing NP in vivo (of full reversal at peak effect) [1]: ~70%
3 | CNC(=O)[C@]12CC1[C@@H](n1cnc3c(NCCc4ccccc4)nc(-n4cc(-c5ccc(Cl)s5)nn4)nc31)[C@H](O)C2O (stereo partly drawn) [Compound 121] | 6.66 ± 2.07 |  |  | 58 | 80 | 90 | 0.5 to 3 | 
4 | CNC(=O)[C@@]12C[C@@H]1[C@@H](n1cnc3c(NC)nc(C#Cc4ccsc4)nc31)[C@H](O)[C@@H]2O [Compound 16, (1 S,2R,3S,4R,5S)-2,3-Dihydroxy-N-methyl-4-(6-(methylamino)-2-(thiophen-3-ylethynyl)-9H-purin-9-yl)bicyclo[3.1.0]hexane-1-carboxamide] | 0.52 ± 0.04 |  | 3 ± 2 |  |  |  | 0.5 to 1 | inhibition at 10 µM (hA1AR): 11%; Efficacy in reversing NP in vivo (of full reversal at peak effect) [1]: diminished
5 | CNC(=O)[C@]12CC1[C@@H](n1cnc3c(NC)nc(-n4cc(-c5cnn(C)c5)nn4)nc31)[C@H](O)C2O (stereo partly drawn) [Compound 106] | 2.16 ± 0.32 | 1 ± 1 |  | 2 ± 2 | 22 ± 7 | 85 ± 5 | 1 | 
6 | CNC(=O)[C@]12CC1[C@@H](n1cnc3c(NCc4cccc(Cl)c4)nc(-n4cc(-c5ccc(Cl)s5)nn4)nc31)[C@H](O)C2O (stereo partly drawn) [Compound 120] | 11.7 |  |  |  | 100 | 100 | 0.5 to 4 | 
7 | CNC(=O)[C@]12CC1[C@@H](n1cnc3c(NCc4cccc(Cl)c4)nc(N=[N+]=[N-])nc31)[C@H](O)C2O (stereo partly drawn) [Compound 124] | 1.08 ± 0.75 |  |  |  |  |  |  | Ki (hA2AAR): 2770 nM
8 | CNC(=O)[C@]12CC1[C@@H](n1cnc3c(NC)nc(-n4cc(-c5ccco5)nn4)nc31)[C@H](O)C2O (stereo partly drawn) [Compound 107] | 0.96 ± 0.09 | 51 ± 1 |  |  | 21 ± 7 | 65 ± 8 | 1 | 
9 | CNC(=O)[C@]12CC1[C@@H](n1cnc3c(NCCc4ccccc4)nc(N=[N+]=[N-])nc31)[C@H](O)C2O (stereo partly drawn) [Compound 117] | 0.85 ± 0.1 | 71 |  | 93 |  |  |  | 
10 | CNC(=O)[C@]12CC1[C@@H](n1cnc3c(NC4CCC4)nc(N=[N+]=[N-])nc31)[C@H](O)C2O (stereo partly drawn) [Compound 115] | 0.85 ± 0.1 | 46 |  |  |  |  |  | 
11 | CNC(=O)[C@@]12C[C@@H]1[C@@H](n1cnc3c(NC)nc(C#Cc4ccncc4)nc31)[C@H](O)[C@@H]2O [Compound 300, (1S,2R,3S,4R,5S)-2,3-Dihydroxy-N-methyl-4-(6-(methylamino)-2-(pyridin-4-ylethynyl)-9H-purin-9-yl)bicyclo[3.1.0] hexane-1-carboxamide] | 2.07 ± 0.16 |  | 2 ± 2 |  |  |  | 1 | inhibition at 10 µM (hA1AR): 15%; Efficacy in reversing NP in vivo (of full reversal at peak effect) [1]: low efficacy
12 | CNC(=O)[C@]12CC1[C@@H](n1cnc3cnc(C#Cc4ccccc4)nc31)[C@H](O)C2O (stereo partly drawn) [Compound 402] | 1.51 ± 0.41 |  |  | 28 ± 4 |  |  |  | Ki (hA2AAR): 1200 nM
13 | CNC(=O)[C@]12CC1[C@@H](n1cnc3c(NCCc4ccccc4)nc(I)nc31)[C@H](O)C2O (stereo partly drawn) [Compound 119] | 0.91 ± 0.14 |  |  | 68 |  |  |  | 
14 | CNC(=O)[C@]12CC1[C@@H](n1cnc3c(NC)nc(-n4cc(-c5ccccn5)nn4)nc31)[C@H](O)C2O (stereo partly drawn) [Compound 103] | 1.84 ± 0.38 | 26 ± 2 |  | 29 ± 7 | 22 ± 7 | 55 ± 6 | 1 | 

Second part, led by results:

Row | Ki (hA3AR) [nM] | hA2AAR % inhibition (hA2AAR) [%] | inhibition at 10 µM (hA2AAR) [%] | SMILES | hA1AR % inhibition (hA1AR) [%] | Effect at 3 h (% ± SEM) [1] [%] | Max. effect Emax (% ± SEM) [1] [%] | Time of peak protection [1] [h] | also measured
15 | 2.21 ± 0.34 | 8 ± 3 |  | CNC(=O)[C@]12CC1[C@@H](n1cnc3c(NC)nc(-n4cc(-c5cnccn5)nn4)nc31)[C@H](O)C2O (stereo partly drawn) [Compound 105] | 25 ± 10 | 22 ± 7 | 78 ± 0 | 1 | 
16 | 16.5 ± 1.9 |  | 1 | CNC(=O)[C@@]12C[C@@H]1[C@@H](n1cnc3c(NC4CC4c4cccc(F)c4)nc(C#Cc4ccccc4)nc31)[C@H](O)[C@@H]2O (mixture of isomers) [Compound 23, (1S,2R,3S,4R,5S)-4-(6-((2-(3-Fluorophenyl)cyclopropyl)amino)-2-(phenylethynyl)-9H-purin-9-yl)-2,3-dihydroxy-N-methylbicyclo[3.1.0]hexane-1-carboxamide] |  |  |  |  | 
17 | 7.13 |  |  | CNC(=O)[C@]12CC1[C@@H](n1cnc3c(NC4CCC4)nc(-n4cc(-c5ccc(Cl)s5)nn4)nc31)[C@H](O)C2O (stereo partly drawn) [Compound 125] |  | 90 | 100 | 0.5 to 3 | 
18 | 0.6 ± 0.08 | 11 ± 6 |  | CCNc1nc(N=[N+]=[N-])nc2c1ncn2[C@@H]1C2C[C@]2(C(=O)NC)C(O)[C@H]1O (stereo partly drawn) [Compound 123] |  |  |  |  | 
19 | 0.63 ± 0.07 |  | 24 ± 8 | CNC(=O)[C@@]12C[C@@H]1[C@@H](n1cnc3c(NC)nc(C#Cc4ccc(OC)cc4)nc31)[C@H](O)[C@@H]2O [Compound 11, (1S,2R,3S,4R,5S)-2,3-Dihydroxy-4-(2-((4-methoxyphenyl)ethynyl)-6-(methylamino)-9H-purin-9-yl)-N-methylbicyclo[3.1.0]hexane-1-carboxamide] |  |  |  | 0.5 to 1 | inhibition at 10 µM (hA1AR): 10%
20 | 3.48 ± 0.97 | 27 ± 3 |  | CNC(=O)[C@]12CC1[C@@H](n1cnc3c(NC)nc(-n4cc(-c5ncccn5)nn4)nc31)[C@H](O)C2O (stereo partly drawn) [Compound 104] | 14 ± 7 | 39 ± 10 | 89 ± 11 | 1 | 
21 | 1.25 ± 0.27 | 40 ± 6 |  | CNC(=O)[C@]12CC1[C@@H](n1cnc3c(NC)nc(-n4cc(-c5cc6ccccc6o5)nn4)nc31)[C@H](O)C2O (stereo partly drawn) [Compound 108] | 12 ± 7 | 8 ± 8 | 55 ± 6 | 1 | 
22 |  |  | 27 ± 5 | CNC(=O)[C@@]12C[C@@H]1[C@@H](n1cnc3c(NC)nc(C#Cc4ncccn4)nc31)[C@H](O)[C@@H]2O [Compound 6, (1S,2R,3S,4R,5S)-2,3-Dihydroxy-N-methyl-4-(6-(methylamino)-2-(pyrimidin-2-ylethynyl)-9H-purin-9-yl)bicyclo[3.1.0]hexane-1-carboxamide] |  |  | 92.3 ± 7.7 | 0.5 to 1 | inhibition at 10 µM (hA1AR): 25 ± 10%; Ki (mA3AR): 65 ± 6 nM; Efficacy in reversing NP in vivo (of full reversal at peak effect) [1]: less than full efficacy
23 | 1.5 ± 0.28 |  | 4 ± 4 | CCc1ccc(C#Cc2nc(NC)c3ncn([C@H]4[C@H](O)[C@H](O)[C@]5(C(=O)NC)C[C@H]45)c3n2)o1 [Compound 34, (1S,2R,3S,4R,5S)-4-(2-((5-Ethylfuran-2-yl)ethynyl)-6-(methylamino)-9H-purin-9-yl)-2,3-dihydroxy-N-methylbicyclo[3.1.0]hexane-1-carboxamide] |  |  |  | 1 | inhibition at 10 µM (hA1AR): 18%
24 | 0.54 ± 0.1 | 1 ± 1 |  | CNC(=O)[C@]12CC1[C@@H](n1cnc3c(NC)nc(N=[N+]=[N-])nc31)[C@H](O)C2O (stereo partly drawn) [Compound 113] |  |  |  |  | 
25 | 1.53 ± 0.45 |  |  | CNC(=O)[C@]12CC1[C@@H](n1cnc3c(NC4CCC4)nc(I)nc31)[C@H](O)C2O (stereo partly drawn) [Compound 118] |  |  |  |  | Ki (hA2AAR): > 10000 nM
26 | 1.22 ± 0.21 | 11 ± 7 |  | CCNc1nc(I)nc2c1ncn2[C@@H]1C2C[C@]2(C(=O)NC)C(O)[C@H]1O (stereo partly drawn) [Compound 122] |  |  |  |  | 
27 |  |  | 19 ± 2 | CNC(=O)[C@@]12C[C@@H]1[C@@H](n1cnc3c(NC)nc(C#Cc4cc[nH]n4)nc31)[C@H](O)[C@@H]2O [Compound 9, (1S,2R,3S,4R,5S)-4-(2-((1H-Pyrazol-3-yl)ethynyl)-6-(methylamino)-9H-purin-9-yl)-2,3-dihydroxy-N-methylbicyclo[3.1.0]hexane-1-carboxamide] |  |  |  | 0.5 to 1 | inhibition at 10 µM (hA1AR): 30%; Ki (mA3AR): 50 ± 2 nM
28 | 0.91 ± 0.07 |  | 26 ± 5 | CNC(=O)[C@@]12C[C@@H]1[C@@H](n1cnc3c(NC)nc(C#Cc4cccc(OC)c4)nc31)[C@H](O)[C@@H]2O [Compound 12, (1S,2R,3S,4R,5S)-2,3-Dihydroxy-4-(2-((3-methoxyphenyl)ethynyl)-6-(methylamino)-9H-purin-9-yl)-N-methylbicyclo[3.1.0]hexane-1-carboxamide] |  |  |  | 0.5 to 2 | inhibition at 10 µM (hA1AR): 8 ± 4%
29 | 0.58 ± 0.17 | 7 ± 6 |  | CNC(=O)[C@]12CC1[C@@H](n1cnc3c(NC)nc(-n4cc(-c5ccc(Br)s5)nn4)nc31)[C@H](O)C2O (stereo partly drawn) [Compound 111] |  | 14 ± 2 | 69 ± 9 | 1 | 
